Results as given in patent publication US20130261147A1, “COMPOSITION FOR PREVENTING OR TREATING DEMENTIA” (priority 2010, published 2013).
Entries after “also recorded” stand apart in the source; their conditions may differ.

Key:
[1] = system: sAPPα; test: Western blot of sAPPα (product of alpha-secretase activity), band density; assay type: cell-based; settings: 0.1 μg/ml; for effect on secretion / production change of sAPPα (in words): Western blot; for Reduction Rate of sAPPα (%) Against Negative Control: band density of Western blot
Procedure: (§1) Effects of the compounds on the production of a product resulted from the activity of alpha-secretase, sAPPα and a product resulted from the activity of beta-secretase, sAPPβ, were investigated through the Western blot methods of sAPPα and sAPPβ, and the results are shown in FIG. 6. […] The band densities of sAPPα and sAPPβ were measured from the Western blot results of FIG. 6, and the results are shown Table 6 and FIG. 7.

[2] = system: alpha-secretase; test: Alpha-secretase activity assay kit with total membrane proteins from HeLa cells; assay type: biochemical; settings: for Activity Change Rate of Alpha-Secretase (%) against Negative Control: 100%: No Change; for change of the activity of the alpha-secretase (in words): 0.01 and 0.1 μg/ml
Excerpt: In order to investigate which secretase is responsible for the inhibitory effects of the compounds on Aβ production, an activity assay kit (#CBA042; Calbiochem, USA) of the alpha-secretase was used. For the alpha-secretase, the total membrane proteins obtained from the HeLa cells (see Test Example 1) were used.

[3] = system: Human Beta Amyloid [1-42] (Aβ42) production in HeLa cell line transfected with Human APP; test: Inhibition of Aβ42 production, HeLa cell line transfected with Human APP, colorimetric ELISA of culture medium; assay type: cell-based; settings: for inhibitory effect on Aβ42 production, dependence on concentration (in words): over the concentrations tested
Excerpt: (§2) To investigate in vitro inhibitory activity of Lycoris aurea extracts against beta-amyloid production, a HeLa cell line transfected with Human APP was used. This cell line was provided from Professor Tae-Wan Kim (Department of Pathology, Columbia University Medical Center, New York, N.Y. 10032, USA). For the quantity analysis of major beta-amyloids, Aβ40, and Aβ42, which are resulted from the activity of gamma-secretase secreted from cells, Human Beta Amyloid (Aβ40), and Human Beta Amyloid (Aβ42) Colorimetric ELISA Kit (#KHB3482 and #KHB3442; BioSource International, Inc., USA) were each used.
(§3) The alcohol extracts of Lycoris aurea (CN1-M, see Example 1) with certain concentrations set forth in Table 1 below were added to the cell culture medium (DMEM culture medium #11995; GIBCO) cultured with the transfected HeLa cells, which were then cultured at 37° C. for 8 hours. A transfected HeLa cell culture medium with no treatment, to which no Lycoris aurea alcohol extracts were added, was used as a negative control.

[4] = system: cells; test: MTT Cell Proliferation assay, cell death activity; assay type: cell-based; settings: 8 hours; for cytotoxicity (in words): up to 10 μg/ml
Procedure: In order to investigate the cell death activity caused by the compounds, lycoricidine and lycoricidinol, MTT Cell Proliferation assay method was used (ATCC catalog #30-1010K, Manassas, USA). After cells were treated with each compound having various concentrations for 8 hours, viable cells were measured quantitatively, and the results are shown in Table 7 and FIG. 8.

[5] = system: Human Beta Amyloid [1-40] (Aβ40) production in HeLa cell line transfected with Human APP; test: Inhibition of Aβ40 production, HeLa cell line transfected with Human APP, colorimetric ELISA of culture medium; assay type: cell-based; settings: for inhibitory effect on Aβ40 production, dependence on concentration (in words): over the concentrations tested
Excerpt: as §2, §3

[6] = system: sAPPβ; test: Western blot of sAPPβ (product of beta-secretase activity), band density; assay type: cell-based; settings: 0.1 μg/ml; for effect on secretion / production change of sAPPβ (in words): Western blot; for Reduction Rate of sAPPβ (%) Against Negative Control: band density of Western blot
Procedure: as §1

SMILES | effect on secretion / production change of sAPPα (in words) [1] | Reduction Rate of sAPPα (%) Against Negative Control [1] [%] | Activity Change Rate of Alpha-Secretase (%) against Negative Control ([2]; 0.01 μg/ml) [%] | Activity Change Rate of Alpha-Secretase (%) against Negative Control ([2]; 0.1 μg/ml) [%] | change of the activity of the alpha-secretase (in words) [2] | inhibitory effect on Aβ42 production, dependence on concentration (in words) [3] | Cell Death Rate (%) against Negative Control ([4]; 0.01 μg/ml) [%] | Cell Death Rate (%) against Negative Control ([4]; 0.1 μg/ml) [%] | Cell Death Rate (%) against Negative Control ([4]; 1 μg/ml) [%] | Cell Death Rate (%) against Negative Control ([4]; 10 μg/ml) [%] | cytotoxicity (in words) [4] | inhibitory effect on Aβ40 production, dependence on concentration (in words) [5] | effect on secretion / production change of sAPPβ (in words) [6] | Reduction Rate of sAPPβ (%) Against Negative Control [6] [%] | other results
O=C1NC2C(=CC(O)C(O)C2O)c2cc3c(cc21)OCO3 (centres unmarked) [Lycoricidine, lycoricidine] | did not affect the secretion; also recorded: not significant | 12 | 106 | 110 | did not change the activity | concentration-dependent | 4.9 | 11.3 | 19 | 21.1 | not cytotoxic | concentration-dependent | did not affect the secretion; also recorded: not significant | 17 | inhibition at 0.01 µg/mL ([3]; Homo sapiens, HeLa, 0.01 μg/ml, read-out: Aβ42 Production Inhibitory Rate (%) against Negative Control): 16%; inhibition at 0.1 µg/mL ([3]; Homo sapiens, HeLa, 0.1 μg/ml, read-out: Aβ42 Production Inhibitory Rate (%) against Negative Control): 81.3%; inhibition at 1 µg/mL ([3]; Homo sapiens, HeLa, 1 μg/ml, read-out: Aβ42 Production Inhibitory Rate (%) against Negative Control): 97.5%; inhibition at 10 µg/mL ([3]; Homo sapiens, HeLa, 10 μg/ml, read-out: Aβ42 Production Inhibitory Rate (%) against Negative Control): 100%; inhibition at 0.01 µg/mL ([5]; Homo sapiens, HeLa, 0.01 μg/ml, read-out: Aβ40 Production Inhibitory Rate (%) against Negative Control): 3.3%; inhibition at 0.1 µg/mL ([5]; Homo sapiens, HeLa, 0.1 μg/ml, read-out: Aβ40 Production Inhibitory Rate (%) against Negative Control): 67%; inhibition at 1 µg/mL ([5]; Homo sapiens, HeLa, 1 μg/ml, read-out: Aβ40 Production Inhibitory Rate (%) against Negative Control): 92.8%; inhibition at 10 µg/mL ([5]; Homo sapiens, HeLa, 10 μg/ml, read-out: Aβ40 Production Inhibitory Rate (%) against Negative Control): 97.2%
O=C1NC2C(=CC(O)C(O)C2O)c2cc3c(c(O)c21)OCO3 (centres unmarked) [Lycoricidinol, lycoricidinol] | did not affect the secretion; also recorded: not significant | 1.0 | 94 | 100 | did not change the activity | concentration-dependent | 10.3 | 11.6 | 16.5 | 19.3 | not cytotoxic | concentration-dependent | did not affect the secretion; also recorded: not significant | 7.5 | Aβ42 Production Inhibitory Rate (%) against Negative Control ([3]; 0.01 μg/ml): 44.0%; Aβ42 Production Inhibitory Rate (%) against Negative Control ([3]; 0.1 μg/ml): 97.0%; Aβ42 Production Inhibitory Rate (%) against Negative Control ([3]; 1 μg/ml): 100%; Aβ42 Production Inhibitory Rate (%) against Negative Control ([3]; 10 μg/ml): 100%; Aβ40 Production Inhibitory Rate (%) against Negative Control ([5]; 0.01 μg/ml): 25.0%; Aβ40 Production Inhibitory Rate (%) against Negative Control ([5]; 0.1 μg/ml): 90.4%; Aβ40 Production Inhibitory Rate (%) against Negative Control ([5]; 1 μg/ml): 97.8%; Aβ40 Production Inhibitory Rate (%) against Negative Control ([5]; 10 μg/ml): 98.4%
